Here are results for 13 compounds from patent publication US10221173B2, “Chemical compounds” (AstraZeneca AB, priority 2017, dated 2019).

Usually pIC50 stands for the IC50 on a negative log10 scale, so that one unit is a factor of ten. By solubility is commonly meant the dissolved amount per volume that the medium holds. Broadly, the logD is the decadic logarithm of the distribution of all forms, ionised or not, between an organic phase and buffer at a given pH. High values mean a more lipophilic compound, low ones a more hydrophilic compound.

Each structure is given as a SMILES string. pIC50: −log10 of the molar value. Values after ≈ are worked out from the molar mass of the structure shown.

One data set deals with hERG potassium channel (Homo sapiens (Human), UniProt Q12809).
Chain of hERG potassium channel (Q12809 whole entry): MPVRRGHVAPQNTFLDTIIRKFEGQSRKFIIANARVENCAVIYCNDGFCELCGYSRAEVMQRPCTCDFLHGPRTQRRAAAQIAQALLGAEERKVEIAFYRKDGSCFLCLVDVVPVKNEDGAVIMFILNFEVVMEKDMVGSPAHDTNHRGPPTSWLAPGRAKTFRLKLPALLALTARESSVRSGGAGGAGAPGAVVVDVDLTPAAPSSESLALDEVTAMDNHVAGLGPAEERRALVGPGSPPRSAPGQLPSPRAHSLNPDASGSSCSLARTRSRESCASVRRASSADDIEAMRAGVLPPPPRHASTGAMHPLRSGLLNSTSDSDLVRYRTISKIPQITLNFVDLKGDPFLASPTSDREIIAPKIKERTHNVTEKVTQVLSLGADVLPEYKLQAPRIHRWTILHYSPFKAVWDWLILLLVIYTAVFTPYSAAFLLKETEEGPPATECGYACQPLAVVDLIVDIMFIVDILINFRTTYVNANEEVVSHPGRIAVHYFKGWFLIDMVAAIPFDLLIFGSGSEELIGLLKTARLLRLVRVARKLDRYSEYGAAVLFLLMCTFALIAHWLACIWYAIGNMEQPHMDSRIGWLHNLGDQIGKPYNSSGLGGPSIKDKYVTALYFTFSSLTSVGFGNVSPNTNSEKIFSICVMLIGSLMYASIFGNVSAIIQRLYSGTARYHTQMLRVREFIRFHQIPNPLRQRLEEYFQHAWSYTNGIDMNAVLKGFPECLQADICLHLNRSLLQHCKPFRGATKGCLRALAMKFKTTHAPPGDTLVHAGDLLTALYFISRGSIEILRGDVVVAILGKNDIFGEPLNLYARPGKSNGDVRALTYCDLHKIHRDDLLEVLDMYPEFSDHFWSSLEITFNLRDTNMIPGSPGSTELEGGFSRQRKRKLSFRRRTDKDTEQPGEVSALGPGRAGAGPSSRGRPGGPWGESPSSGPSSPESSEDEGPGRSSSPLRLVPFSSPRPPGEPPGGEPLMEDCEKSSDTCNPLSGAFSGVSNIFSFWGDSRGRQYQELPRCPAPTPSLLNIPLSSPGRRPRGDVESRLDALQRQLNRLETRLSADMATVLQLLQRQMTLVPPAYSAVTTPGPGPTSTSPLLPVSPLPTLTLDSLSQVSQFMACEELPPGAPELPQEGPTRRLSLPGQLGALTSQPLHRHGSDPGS
In data set [1] the target is T1, Estrogen Receptor (ERα) in MCF-7 cells (Homo sapiens (Human), UniProt P03372). In words: Western blotting assay, ER down-regulation in MCF-7. It counts as cell-based. The settings on record: MCF-7, 100 nM compound, 48 h, vs 100 nM fulvestrant. In general terms: A western blot detects proteins with antibodies after separation by electrophoresis.
T1 sequence (P03372 whole entry): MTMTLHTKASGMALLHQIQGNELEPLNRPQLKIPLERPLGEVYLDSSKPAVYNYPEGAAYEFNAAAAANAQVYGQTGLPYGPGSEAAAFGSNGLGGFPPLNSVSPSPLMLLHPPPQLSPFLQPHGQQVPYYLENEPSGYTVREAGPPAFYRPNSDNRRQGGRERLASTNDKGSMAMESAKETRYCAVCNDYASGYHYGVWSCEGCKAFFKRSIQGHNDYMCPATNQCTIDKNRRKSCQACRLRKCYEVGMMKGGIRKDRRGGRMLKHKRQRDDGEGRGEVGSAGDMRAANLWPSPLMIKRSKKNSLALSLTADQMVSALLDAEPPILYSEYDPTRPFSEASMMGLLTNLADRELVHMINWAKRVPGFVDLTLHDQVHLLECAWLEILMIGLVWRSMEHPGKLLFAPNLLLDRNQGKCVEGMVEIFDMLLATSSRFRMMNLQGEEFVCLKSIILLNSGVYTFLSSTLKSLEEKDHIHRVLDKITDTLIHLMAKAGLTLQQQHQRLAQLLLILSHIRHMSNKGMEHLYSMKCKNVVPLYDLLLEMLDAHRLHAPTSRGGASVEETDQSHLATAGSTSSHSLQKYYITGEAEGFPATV
Data set [2] in a line: Human plasma protein binding (equilibrium dialysis). It counts as in vitro ADME.
Data set [3] is described as follows: Thermodynamic solubility (shake-flask). Type of data set: physicochemical. The note with it: aqueous phosphate buffer, 25 °C, pH 7.4, aqueous buffer, thermodynamic from solid, phosphate buffer pH 7.4, 24 hours.
Data set [4] has as its target recombinant human Estrogen Receptor alpha ligand binding domain (ER alpha-LBD (GST)) (Homo sapiens (Human), UniProt P03372). Kind of data set: ERα binding assay (LanthaScreen TR-FRET competition). On the technique in general: Time-resolved FRET reads energy transfer from a long-lived donor to a nearby acceptor.
Procedure: The ability of compounds to bind to isolated Estrogen Receptor Alpha Ligand binding domain (ER alpha—LBD (GST)) was assessed in competition assays using a LanthaScreen Time-Resolved Fluorescence Resonance Energy Transfer (TR-FRET) detection end-point. For the LanthaScreen TR-FRET endpoint, a suitable fluorophore (Fluormone ES2, ThermoFisher, Product code P2645) and recombinant human Estrogen Receptor alpha ligand binding domain, residues 307-554 (expressed and purified in-house) were used to measure compound binding. The assay principle is that ER alpha-LBD (GST) is added to a fluorescent ligand to form a receptor/fluorophore complex. A terbium-labelled anti-GST antibody (Product code PV3551) is used to indirectly label the receptor by binding to its GST tag, and competitive binding is detected by a test compound's ability to displace the fluorescent ligand, resulting in a loss of TR-FRET signal between the Tb-anti-GST antibody and the tracer. The assay was performed as follows with all reagent additions carried out using the Beckman Coulter BioRAPTR FRD microfluidic workstation: • 1. Acoustic dispense 120 nL of the test compound into a black low volume 384 well assay plates. • 2. Prepare 1× ER alpha-LBD/Tb-antiGST Ab in ES2 screening buffer and incubate for 15 minutes. • 3. […] Cover the assay plate to protect the reagents from light and evaporation, and incubate at room temperature for 4 hours. • 5. Excite at 337 nm and measure the fluorescent emission signal of each well at 490 nm and 520 nm using the BMG PheraSTAR.
TR-FRET dose response data obtained with each compound was exported into a suitable software package (such as Origin or Genedata) to perform curve fitting analysis. Competitive ER alpha binding was expressed as an IC50 value.
Data set [5] has as its target estrogen receptor (ERα) in CAMA-1 cells (Homo sapiens (Human), UniProt P03372). In words: Western blotting assay, ER down-regulation in CAMA-1. It counts as cell-based. The note with it: CAMA-1, 100 nM compound, 48 h, vs 100 nM fulvestrant.
The target of data set [6] is T1, Estrogen Receptor (ERα) in MCF-7 cells. In words: MCF-7 ER down-regulation assay (immuno-fluorescence). It counts as cell-based.
A short description of data set [7]: Log D (shake flask, 1-octanol/aqueous buffer). Type of data set: physicochemical. The settings on record: 1-octanol/aqueous buffer, pH 7.4, pH 7.4.

Chain of estrogen receptor (ERα) in CAMA-1 cells (P03372 whole entry): as above
Chain of recombinant human Estrogen Receptor alpha ligand binding domain (ER alpha-LBD (GST)) (P03372 307-554): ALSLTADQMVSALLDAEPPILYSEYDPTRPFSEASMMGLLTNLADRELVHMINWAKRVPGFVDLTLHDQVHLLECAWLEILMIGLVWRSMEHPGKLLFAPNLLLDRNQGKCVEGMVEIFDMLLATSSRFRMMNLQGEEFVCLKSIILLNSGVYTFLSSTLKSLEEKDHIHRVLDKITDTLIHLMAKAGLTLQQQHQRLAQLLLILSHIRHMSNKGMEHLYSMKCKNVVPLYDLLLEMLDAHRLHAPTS

As to `C[C@@H]1Cc2c([nH]c3ccc(F)cc23)[C@@H](c2c(F)ccc(OCCNCCCF)c2F)N1CC(F)(F)CO` [Example 15, 3-((1R,3R)-1-(2,6-difluoro-3-(2-((3-fluoropropyl)amino)ethoxy)phenyl)-6-fluoro-3-methyl-1,3,4,9-tetrahydro-2H-pyrido[3,4-b]indol-2-yl)-2,2-difluoropropan-1-ol], the negative-log IC50 (pIC50) at hERG potassium channel is 5.34; in data set [4], 9.26; in data set [6] it was 10.10. For the same compound, the “MCF7 Western % ER deg vs Fv” value in data set [1] is 94%. The “Human plasma protein binding (% free)” value in data set [2] is reported as 3.2 % free. Besides, in data set [3], the solubility at 24 h turned out to be 571 µM (≈ 302 µg/mL). For the same compound, the “CAMA1 Western % ER deg vs Fv” value in data set [5] is recorded as 91%. Further, the logD in data set [7] is 2.9.

For the compound `C[C@@H]1Cc2c([nH]c3ccccc23)[C@@H](c2cc(OCCNCCCF)ccc2C#N)N1CC(F)(F)F` [Example 23, 4-(2-((3-fluoropropyl)amino)ethoxy)-2-((1R,3R)-3-methyl-2-(2,2,2-trifluoroethyl)-2,3,4,9-tetrahydro-1H-pyrido[3,4-b]indol-1-yl)benzonitrile], the pIC50 against hERG potassium channel is 5.27; in data set [4] it was 8.57; in data set [6] it was 9.30. In addition, the “MCF7 Western % ER deg vs Fv” value in data set [1] is 95%. The “Human plasma protein binding (% free)” value in data set [2] was 3.7 % free. The compound also had a solubility at 24 h in data set [3] of 73 µM (≈ 35.7 µg/mL). Besides, the “CAMA1 Western % ER deg vs Fv” value in data set [5] was found to be 95%. The compound further had a logD in data set [7] of 3.4.

`C[C@@H]1Cc2c([nH]c3ccccc23)[C@@H](c2cc(OCCNCCCF)ccn2)N1CC(F)(F)F` [Example 35, 3-fluoro-N-(2-((2-((1S,3R)-3-methyl-2-(2,2,2-trifluoroethyl)-2,3,4,9-tetrahydro-1H-pyrido[3,4-b]indol-1-yl)pyridin-4-yl)oxy)ethyl)propan-1-amine]: the pIC50 against hERG potassium channel was 5.25; in data set [4] it was 8.72; in data set [6], 8.96. Moreover, the “MCF7 Western % ER deg vs Fv” value in data set [1] is listed as 94%. The “Human plasma protein binding (% free)” value in data set [2] is recorded as 5.4 % free. In addition, the solubility at 24 h in data set [3] was 222 µM (≈ 103 µg/mL). Also, the “CAMA1 Western % ER deg vs Fv” value in data set [5] is on record as 92%. In addition, the logD in data set [7] is 3.1.

Turning to `C[C@@H]1Cc2c([nH]c3ccccc23)[C@@H](c2cc(OCCNCCCF)ccc2Cl)N1CC(F)(F)CO` [Example 44, 3-((1R,3R)-1-(2-chloro-5-(2-((3-fluoropropyl)amino)ethoxy)phenyl)-3-methyl-1,3,4,9-tetrahydro-2H-pyrido[3,4-b]indol-2-yl)-2,2-difluoropropan-1-ol], the results for the pIC50 (at hERG potassium channel; in data set [4]; in data set [6]) were 5.54, 9.00 and 9.85, respectively. Besides, the “MCF7 Western % ER deg vs Fv” value in data set [1] came out at 95%. Besides, in data set [2], the “Human plasma protein binding (% free)” value stood at 2.3 % free. The solubility at 24 h in data set [3] is 278 µM (≈ 142 µg/mL). Further, in data set [5], the “CAMA1 Western % ER deg vs Fv” value is listed as 94%. This compound also registered a log distribution coefficient (logD) in data set [7] of 3.3.

As to `COc1ccc(OCCNCCCF)cc1[C@@H]1c2[nH]c3ccc(F)cc3c2C[C@@H](C)N1CC(F)(F)CO` [Example 46, 2,2-difluoro-3-((1R,3R)-6-fluoro-1-(5-(2-((3-fluoropropyl)amino)ethoxy)-2-methoxyphenyl)-3-methyl-1,3,4,9-tetrahydro-2H-pyrido[3,4-b]indol-2-yl)propan-1-ol], the pIC50 is 5.57 at hERG potassium channel, 9.00 in data set [4] and 9.66 in data set [6]. The “MCF7 Western % ER deg vs Fv” value in data set [1] was 83%. The “Human plasma protein binding (% free)” value in data set [2] is 2.4 % free. This compound showed a solubility at 24 h in data set [3] of 462 µM (≈ 242 µg/mL). The “CAMA1 Western % ER deg vs Fv” value in data set [5] is listed as 89%. The logD in data set [7] was found to be 2.8.

For the compound `C[C@@H]1Cc2c([nH]c3ccccc23)[C@@H](c2c(F)ccc(OCCNCCCF)c2F)N1CC(F)F` [Example 51, N-(2-(3-((1R,3R)-2-(2,2-difluoroethyl)-3-methyl-2,3,4,9-tetrahydro-1H-pyrido[3,4-b]indol-1-yl)-2,4-difluorophenoxy)ethyl)-3-fluoropropan-1-amine], the pIC50 was 5.39 on hERG potassium channel, 8.92 in data set [4] and 9.92 in data set [6]. The “MCF7 Western % ER deg vs Fv” value in data set [1] is 92%. In addition, the “Human plasma protein binding (% free)” value in data set [2] was 2.3 % free. In addition, the solubility at 24 h in data set [3] stood at 122 µM (≈ 58.7 µg/mL). Besides, the “CAMA1 Western % ER deg vs Fv” value in data set [5] came to 93%. In data set [7], this compound yielded a logD of 3.2.

On to `C[C@@H]1Cc2c([nH]c3c(F)cccc23)[C@@H](c2c(F)ccc(OCCNCCCF)c2F)N1CC(F)(F)CO` [Example 60, 3-((1R,3R)-1-(2,6-difluoro-3-(2-((3-fluoropropyl)amino)ethoxy)phenyl)-8-fluoro-3-methyl-1,3,4,9-tetrahydro-2H-pyrido[3,4-b]indol-2-yl)-2,2-difluoropropan-1-ol], for which the pIC50 against hERG potassium channel was 5.36; in data set [4], 9.08; in data set [6] it was 9.92. Moreover, in data set [1], the “MCF7 Western % ER deg vs Fv” value came to 92%. The “Human plasma protein binding (% free)” value in data set [2] came out at 1.9 % free. For the same compound, in data set [3], the solubility at 24 h was 351 µM (≈ 186 µg/mL). In addition, the “CAMA1 Western % ER deg vs Fv” value in data set [5] was determined as 97%. The compound also displayed a logD in data set [7] of 3.

In the case of `C[C@@H]1Cc2c([nH]c3cc(F)ccc23)[C@@H](c2c(F)ccc(OCCNCCCF)c2F)N1CC(F)(F)CO` [Example 61, 3-((1R,3R)-1-(2,6-difluoro-3-(2-((3-fluoropropyl)amino)ethoxy)phenyl)-7-fluoro-3-methyl-1,3,4,9-tetrahydro-2H-pyrido[3,4-b]indol-2-yl)-2,2-difluoropropan-1-ol], the pIC50 on hERG potassium channel is 5.57; in data set [4], 9.10; in data set [6], 9.72. The “MCF7 Western % ER deg vs Fv” value in data set [1] was 94%. The “Human plasma protein binding (% free)” value in data set [2] came out at 2.0 % free. In data set [3], this compound came in with a solubility at 24 h of 446 µM (≈ 236 µg/mL). Moreover, the “CAMA1 Western % ER deg vs Fv” value in data set [5] amounted to 83%. In data set [7], this compound yielded a logD of 3.

In the case of `C[C@@H]1Cc2c([nH]c3cccc(F)c23)[C@@H](c2c(F)ccc(OCCNCCCF)c2F)N1CC(F)(F)CO` [Example 62, 3-((1R,3R)-1-(2,6-difluoro-3-(2-((3-fluoropropyl)amino)ethoxy)phenyl)-5-fluoro-3-methyl-1,3,4,9-tetrahydro-2H-pyrido[3,4-b]indol-2-yl)-2,2-difluoropropan-1-ol], the pIC50 at hERG potassium channel was 5.30; in data set [4] it was 9.15; in data set [6], 10.12. Moreover, the “MCF7 Western % ER deg vs Fv” value in data set [1] is on record as 95%. The “Human plasma protein binding (% free)” value in data set [2] is 1.2 % free. In data set [3], the solubility at 24 h came to 302 µM (≈ 160 µg/mL). Besides, the “CAMA1 Western % ER deg vs Fv” value in data set [5] is 96%. In addition, the logD in data set [7] was found to be 3.3.

In the case of `Cc1ccc2[nH]c3c(c2c1)C[C@@H](C)N(CC(F)(F)CO)[C@@H]3c1c(F)ccc(OCCNCCCF)c1F` [Example 63, 3-((1R,3R)-1-(2,6-difluoro-3-(2-((3-fluoropropyl)amino)ethoxy)phenyl)-3,6-dimethyl-1,3,4,9-tetrahydro-2H-pyrido[3,4-b]indol-2-yl)-2,2-difluoropropan-1-ol], the pIC50 was 5.33 against hERG potassium channel, 8.96 in data set [4] and 9.49 in data set [6]. For the same compound, the “MCF7 Western % ER deg vs Fv” value in data set [1] came out at 94%. Also, the “Human plasma protein binding (% free)” value in data set [2] stood at 0.97 % free. This compound showed a solubility at 24 h in data set [3] of 273 µM (≈ 143 µg/mL). The “CAMA1 Western % ER deg vs Fv” value in data set [5] is 85%. The compound further gave a logD in data set [7] of 3.1.

Turning to `C[C@@H]1Cc2c([nH]c3ccc(F)cc23)[C@@H](c2c(F)cnc(OCCNCCCF)c2F)N1CC(F)(F)CO` [Example 65, 3-((1R,3R)-1-(3,5-difluoro-2-(2-((3-fluoropropyl)amino)ethoxy)pyridin-4-yl)-6-fluoro-3-methyl-1,3,4,9-tetrahydro-2H-pyrido[3,4-b]indol-2-yl)-2,2-difluoropropan-1-ol], the pIC50 at hERG potassium channel is 5.03; in data set [4], 9.19; in data set [6] it was 10.24. For the same compound, the “MCF7 Western % ER deg vs Fv” value in data set [1] amounted to 94%. For the same compound, the “Human plasma protein binding (% free)” value in data set [2] amounted to 1.9 % free. Moreover, the solubility at 24 h in data set [3] stood at 462 µM (≈ 245 µg/mL). Besides, the “CAMA1 Western % ER deg vs Fv” value in data set [5] is given as 97%. This compound returned a logD in data set [7] of 3.

On to `C[C@@H]1Cc2c([nH]c3ccccc23)[C@@H](c2c(F)ccc(NCCNCCCF)c2F)N1CC(F)(F)F` [Example 88, N1-(2,4-difluoro-3-((1R,3R)-3-methyl-2-(2,2,2-trifluoroethyl)-2,3,4,9-tetrahydro-1H-pyrido[3,4-b]indol-1-yl)phenyl)-N2-(3-fluoropropyl)ethane-1,2-diamine], for which the pIC50 against hERG potassium channel is 5.32; in data set [4], 8.66; in data set [6], 9.55. Also, the “MCF7 Western % ER deg vs Fv” value in data set [1] is listed as 90%. The “Human plasma protein binding (% free)” value in data set [2] is 0.58 % free. This compound came in with a solubility at 24 h in data set [3] of 118 µM (≈ 58.8 µg/mL). Also, the “CAMA1 Western % ER deg vs Fv” value in data set [5] turned out to be 93%. Also, in data set [7], the logD was determined as 3.4.

`COc1ccc(NCCNCCCF)c(F)c1[C@@H]1c2[nH]c3ccccc3c2C[C@@H](C)N1CC(F)(F)F` [Example 90, N1-(2-fluoro-4-methoxy-3-((1R,3R)-3-methyl-2-(2,2,2-trifluoroethyl)-2,3,4,9-tetrahydro-1H-pyrido[3,4-b]indol-1-yl)phenyl)-N2-(3-fluoropropyl)ethane-1,2-diamine]: the results for the pIC50 (at hERG potassium channel; in data set [4]; in data set [6]) were 5.30, 9.19 and 9.52, respectively. In addition, the “MCF7 Western % ER deg vs Fv” value in data set [1] was 76%. The “Human plasma protein binding (% free)” value in data set [2] is on record as 1.1 % free. Also, in data set [3], the solubility at 24 h was found to be 365 µM (≈ 186 µg/mL). The “CAMA1 Western % ER deg vs Fv” value in data set [5] was determined as 93%. This compound displayed a logD in data set [7] of 2.8.
